According to patent publication US5049685A, “Nuclear substituted salicylic acids and their salts” (Sanko Kaihatsu Kagaku Kenkyusho, priority 1988, dated 1991):

Experiment: Solubility in water (four-stage evaluation)
Assay type: physicochemical
For `C1COCCN1` [1 Morpholine], the solubility was greater than 500 mg/mL.
Compound `Cc1c(C(C)(C)C)cc(C(C)(C)C)c(O)c1C(=O)O` [1 Sodium] has a solubility greater than 500 mg/mL.
In the case of `Cc1c(C(C)(C)c2ccccc2)cc(C(C)(C)C)c(O)c1C(=O)O` [2-2 Morpholine], the “Solubility in Water” value is reported as “.circleincircle. (solubility =not less than 50%)”.
In the case of `Cc1c(C(C)(C)c2ccccc2)cc(C(C)(C)C)c(O)c1C(=O)O` [2-2 Sodium], the solubility is reported as greater than 500 mg/mL.
`CCC(C)(C)c1cc(C(C)(C)CC)c(O)c(C(=O)O)c1C` [3-2 Sodium] showed a solubility greater than 500 mg/mL.
In the case of `Cc1c(C(C)(C)C)cc(C(C)(C)CC(C)(C)C)c(O)c1C(=O)O` [4-3 Morpholine], the “Solubility in Water” value is reported as “.circleincircle. (solubility =not less than 50%)”.
`Cc1c(C(C)(C)C)cc(C(C)(C)CC(C)(C)C)c(O)c1C(=O)O` [4-3 Sodium] gave a solubility greater than 500 mg/mL.
For `Cc1c(C(C)(C)C)cc(C(C)(C)c2ccccc2)c(O)c1C(=O)O` [5-3 Morpholine], the “Solubility in Water” value was “.circleincircle. (solubility =not less than 50%)”.
For `Cc1c(C(C)(C)C)cc(C(C)(C)c2ccccc2)c(O)c1C(=O)O` [5-3 Sodium], the solubility was greater than 500 mg/mL.
For `Cc1cc(C(C)(C)c2ccccc2)c(C)c(C(=O)O)c1O` [11-2 Sodium], the solubility was greater than 500 mg/mL.
In the case of `Cc1c(C(C)(C)c2ccccc2)cc(C(C)C)c(O)c1C(=O)O` [12-2 Sodium], the solubility is reported as greater than 500 mg/mL.
For `Cc1cc(C(C)(C)c2ccccc2)cc(C(=O)O)c1O` [(2) Sodium, 3-methyl-5-(α, α-dimethylbenzyl)salicylic acid, reference compound], the solubility was 200 to 500 mg/mL.

Experiment: Solubility in toluene (four-stage evaluation)
Assay type: physicochemical
With `Cc1c(C(C)(C)C)cc(C(C)(C)C)c(O)c1C(=O)O` [1 Free Acid] the “Solubility in Toluene” value was “.largecircle. (solubility =not less than 20% to less than 50%)”.
With `C1COCCN1` [1 Morpholine] the “Solubility in Toluene” value was “.largecircle. (solubility =not less than 20% to less than 50%)”.
With `Cc1c(C(C)(C)c2ccccc2)cc(C(C)(C)C)c(O)c1C(=O)O` [2-2 Free Acid] the “Solubility in Toluene” value was “.circleincircle. (solubility =not less than 50%)”.
In the case of `Cc1c(C(C)(C)c2ccccc2)cc(C(C)(C)C)c(O)c1C(=O)O` [2-2 Morpholine], the “Solubility in Toluene” value is reported as “.largecircle. (solubility =not less than 20% to less than 50%)”.
In the case of `CCC(C)(C)c1cc(C(C)(C)CC)c(O)c(C(=O)O)c1C` [3-2 Free Acid], the “Solubility in Toluene” value is reported as “.largecircle. (solubility =not less than 20% to less than 50%)”.
With `Cc1c(C(C)(C)C)cc(C(C)(C)CC(C)(C)C)c(O)c1C(=O)O` [4-3 Free Acid] the “Solubility in Toluene” value was “.circleincircle. (solubility =not less than 50%)”.
With `Cc1c(C(C)(C)C)cc(C(C)(C)CC(C)(C)C)c(O)c1C(=O)O` [4-3 Morpholine] the “Solubility in Toluene” value was “.largecircle. (solubility =not less than 20% to less than 50%)”.
With `Cc1c(C(C)(C)C)cc(C(C)(C)c2ccccc2)c(O)c1C(=O)O` [5-3 Free Acid] the “Solubility in Toluene” value was “.circleincircle. (solubility =not less than 50%)”.
In the case of `Cc1c(C(C)(C)C)cc(C(C)(C)c2ccccc2)c(O)c1C(=O)O` [5-3 Morpholine], the “Solubility in Toluene” value is reported as “.largecircle. (solubility =not less than 20% to less than 50%)”.
For `Cc1cc(C(C)(C)c2ccccc2)c(C)c(C(=O)O)c1O` [11-2 Free Acid], the “Solubility in Toluene” value was “.largecircle. (solubility =not less than 20% to less than 50%)”.
In the case of `Cc1c(C(C)(C)c2ccccc2)cc(C(C)C)c(O)c1C(=O)O` [12-2 Free Acid], the “Solubility in Toluene” value is reported as “.circleincircle. (solubility =not less than 50%)”.
In the case of `Cc1cc(C(C)(C)c2ccccc2)cc(C(=O)O)c1O` [(2) Free Acid, 3-methyl-5-(α,α-dimethyllbenzyl)salicylic acid, reference compound], the “Solubility in Toluene” value is reported as “Δ (solubility =not less than 5% to less than 20%)”.
